Experimental data from article PMC10989504 (RSC Chemical Biology, 2024).

Key:
AML and GBM cells = experiment: Viability of AML and GBM cells, control compound; conditions: 72 h, MTT/CCK8, in words
papain = target: T1, papain (Carica papaya, UniProt P00784); experiment: Papain inhibition; format: biochemical; conditions: TD19 at 10 μM; E64 and IAA positive controls
T1 sequence (P00784 134-345): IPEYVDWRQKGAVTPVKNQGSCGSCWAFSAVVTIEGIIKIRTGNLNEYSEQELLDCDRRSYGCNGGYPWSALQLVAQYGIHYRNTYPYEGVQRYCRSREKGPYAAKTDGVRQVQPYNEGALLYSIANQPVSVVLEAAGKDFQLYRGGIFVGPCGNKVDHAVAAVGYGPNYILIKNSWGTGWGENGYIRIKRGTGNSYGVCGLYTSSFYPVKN

ALKBH5 [1] = target: T2, ALKBH5 (Homo sapiens, UniProt Q6P6C2); experiment: FRET-based m6A detection assay, ALKBH5; conditions: preincubation for various durations, in words
FTO = FTO (Homo sapiens, UniProt Q9C0B1); experiment: PAGE-based demethylation assay, FTO; format: biochemical; conditions: compound at 50 μM
ALKBH5 [2] = target: T2, ALKBH5; experiment: PAGE-based demethylation assay, ALKBH5; format: biochemical; conditions: compound at 50 μM
ALKBH5 C100SC267S = ALKBH5 C100SC267S (human, UniProt Q6P6C2 66-292, C100S;C267S); experiment: pull-down
Sequence of ALKBH5 C100SC267S (Q6P6C2 66-292 C100S/C267S): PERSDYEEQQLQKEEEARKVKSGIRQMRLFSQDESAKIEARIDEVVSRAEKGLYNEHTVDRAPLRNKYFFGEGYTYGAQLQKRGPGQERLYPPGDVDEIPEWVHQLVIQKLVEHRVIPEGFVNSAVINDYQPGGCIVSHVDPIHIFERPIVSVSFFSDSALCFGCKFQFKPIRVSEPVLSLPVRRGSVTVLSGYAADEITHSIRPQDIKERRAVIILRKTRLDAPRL

T2 sequence (Q6P6C2 66-292 limits assumed): as the sequence (Q6P6C2 66-292 C100S/C267S) above, with S35C, S202C counted along it
Sequence of FTO (Q9C0B1 32-505 limits assumed): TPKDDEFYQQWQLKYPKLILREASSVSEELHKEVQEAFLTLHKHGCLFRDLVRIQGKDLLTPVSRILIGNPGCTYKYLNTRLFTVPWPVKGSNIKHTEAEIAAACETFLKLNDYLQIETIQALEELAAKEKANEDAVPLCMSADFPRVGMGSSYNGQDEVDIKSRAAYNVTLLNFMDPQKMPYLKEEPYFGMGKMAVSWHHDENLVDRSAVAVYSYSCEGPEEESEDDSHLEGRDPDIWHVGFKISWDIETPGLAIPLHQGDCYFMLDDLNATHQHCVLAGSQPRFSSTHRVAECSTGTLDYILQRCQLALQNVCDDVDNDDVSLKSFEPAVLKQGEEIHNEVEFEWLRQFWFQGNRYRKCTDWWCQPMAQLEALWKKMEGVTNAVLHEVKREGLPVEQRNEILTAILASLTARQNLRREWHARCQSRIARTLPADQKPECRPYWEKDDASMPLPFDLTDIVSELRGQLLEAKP

| Molecule | Inhibition of papain (papain) | Inhibition of ALKBH5 demethylation of dm6A-modified substrate (ALKBH5 [2]) | other results |
| --- | --- | --- | --- |
| Cc1noc(C)c1-c1cc(Cl)c(Nc2ccccc2C(=O)NO)c(Cl)c1 [FB23-2] | – | – | Antiproliferative activity compared with TD19 (AML and GBM cells): displayed better activities than TD19 |
| CC(C)C[C@H](NC(=O)[C@H]1O[C@@H]1C(=O)O)C(=O)NCCCCN=C(N)N (relative stereo) [E64, L-trans-epoxysuccinyl-leucylamido(4-guanidino)butane] | significant inhibition | – | – |
| O=C(O)c1cc(O)c2c(c1)C(=O)c1cccc(O)c1C2=O [rhein] | – | – | Time dependence and reversibility of ALKBH5 inhibition (ALKBH5 [1]): time-independent and reversible |
| NC(=O)CI [IAA, iodoacetamide] | significant inhibition | did not inhibit | Inhibition of FTO demethylation of dm6A-modified substrate (FTO): did not inhibit |
| CCN1C(=O)C=CC1=O [NEM, N-ethylmaleimide] | – | inhibited the demethylation | – |
| TTTTTTGGACT (ssDNA, N6-methyl-deoxyadenosine at position 9) [5'-biotin-TEG dm6A DNA] | – | – | binding result (ALKBH5 C100SC267S): binds |
